From ChEMBL document CHEMBL3390846, “Synthesis and biological activity of new pyridone diaryl ether non-nucleoside inhibitors of HIV-1 reverse transcriptase” (Medchemcomm, 2010)

Assays:
[1] = target: Human immunodeficiency virus type 1 reverse transcriptase (Human immunodeficiency virus 1, UniProt Q72547); assay: Inhibition of polymerase activity of wild type HIV-1 LAI reverse transcriptase
[2] = target: Human immunodeficiency virus type 1 reverse transcriptase (Human immunodeficiency virus 1, UniProt Q72547, K103N); assay: Inhibition of polymerase activity of NNRTI-resistant HIV-1 LAI reverse transcriptase K103N mutant
[3] = target: Human immunodeficiency virus type 1 reverse transcriptase (Human immunodeficiency virus 1, UniProt Q72547, Y181C); assay: Inhibition of polymerase activity of NNRTI-resistant HIV-1 LAI reverse transcriptase Y181C mutant
[4] = system: Human immunodeficiency virus 1; assay: Antiviral activity against wild type HIV-1 LAI infected in human MT4 cells assessed as inhibition of viral replication after 5 days by MTT assay; type: functional, organism-based; conditions: Human immunodeficiency virus 1, LAI, MT4, 120 h
[5] = system: Human immunodeficiency virus 1; assay: Antiviral activity against wild type HIV-1 LAI infected in human MT4 cells assessed as inhibition of viral replication after 5 days by MTT assay in presence of 40% human serum; type: functional, organism-based; conditions: Human immunodeficiency virus 1, LAI, MT4, 120 h
[6] = system: Human immunodeficiency virus 1; assay: Antiviral activity against NNRTI-resistant HIV-1 LAI harboring reverse transcriptase Y181C mutant infected in human MT4 cells assessed as inhibition of viral replication after 5 days by MTT assay; type: functional, organism-based; conditions: Human immunodeficiency virus 1, LAI, MT4, 120 h
[7] = system: Human immunodeficiency virus 1; assay: Antiviral activity against wild type HIV-1 LAI infected in human MT4 cells assessed as protection against virus-induced cell death after 5 days by MTT assay; type: functional, organism-based; conditions: Human immunodeficiency virus 1, LAI, MT4, 120 h
[8] = system: Human immunodeficiency virus 1; assay: Antiviral activity against NNRTI-resistant HIV-1 LAI harboring reverse transcriptase K103N mutant infected in human MT4 cells assessed as inhibition of viral replication after 5 days by MTT assay; type: functional, organism-based; conditions: Human immunodeficiency virus 1, LAI, MT4, 120 h
[9] = system: Human immunodeficiency virus 1; assay: Potency index, ratio of efavirenz IC50 to compound IC50 for wild type HIV-1 LAI in presence of 40% human serum; type: functional

Structure (SMILES)	IC50 [1]	IC50 [2]	IC50 [3]	IC50 [4]	IC50 [5]	IC50 [6]	IC50 [7]	IC50 [8]	Ratio IC50 [9]
N#Cc1cc(Cl)cc(Oc2cc(CCc3cccc(Cl)c3)[nH]c(=O)c2Cl)c1	0.012 µM	0.006 µM	0.007 µM						
N#Cc1cc(Cl)cc(Oc2cc(CCc3ccncc3)[nH]c(=O)c2Cl)c1	0.019 µM	0.014 µM	0.021 µM						
N#Cc1cc(Cl)cc(Oc2c(F)c(CCc3ccncc3)[nH]c(=O)c2Br)c1	0.002 µM	0.001 µM	0.001 µM	0.005 µM	0.023 µM	0.011 µM			
N#Cc1cc(Cl)cc(Oc2c(F)c(CCc3ccccc3)[nH]c(=O)c2Cl)c1	0.007 µM								
CN(C)c1c(Oc2cc(Cl)cc(C#N)c2)cc(CC(=O)N2CCc3ccccc3C2)[nH]c1=O	0.22 µM						0.035 µM		
N#Cc1cc(Cl)cc(Oc2cc(CCc3ccccn3)[nH]c(=O)c2Cl)c1	0.021 µM	0.078 µM	0.033 µM						
N#Cc1cc(Cl)cc(Oc2cc(CC(=O)N3CCc4ccccc4C3)[nH]c(=O)c2Cl)c1	0.03 µM						0.035 µM		
Cc1[nH]c(=O)c(Br)c(Oc2cc(Cl)cc(C#N)c2)c1Cc1ccccc1	0.01 µM	0.007 µM	0.008 µM	0.006 µM	0.032 µM	0.029 µM		0.016 µM	
N#Cc1cc(Cl)cc(Oc2cc(CCc3cccnc3)[nH]c(=O)c2Cl)c1	0.022 µM	0.016 µM	0.022 µM						
Cc1[nH]c(=O)c(Cl)c(Oc2cc(Cl)cc(C#N)c2)c1CCCc1ccncc1	0.004 µM	0.002 µM	0.003 µM	0.002 µM	0.005 µM	0.006 µM			3
N#Cc1cc(Cl)cc(Oc2c(F)c(CC(=O)N3CCc4ccccc4C3)[nH]c(=O)c2Br)c1	0.012 µM						0.05 µM		
N#Cc1cc(Cl)cc(Oc2c(CCOc3ccncc3)c[nH]c(=O)c2Br)c1	0.01 µM	0.014 µM	0.008 µM						
N#Cc1cc(Cl)cc(Oc2c(COCc3ccncc3)c[nH]c(=O)c2Br)c1	0.021 µM	0.013 µM	0.011 µM	0.007 µM	0.01 µM	0.019 µM		0.013 µM	
Cc1[nH]c(=O)c(Cl)c(Oc2cc(Cl)cc(C#N)c2)c1CCOc1ccccc1	0.006 µM	0.005 µM	0.006 µM	0.004 µM	0.013 µM	0.011 µM		0.024 µM	
N#Cc1cc(Cl)cc(Oc2cc(CCc3ccccc3)[nH]c(=O)c2Cl)c1	0.008 µM								
N#Cc1cc(Cl)cc(Oc2cc(CCc3nc4ccccc4o3)[nH]c(=O)c2Cl)c1	0.006 µM	0.016 µM	0.004 µM						
N#Cc1cc(Cl)cc(Oc2c(F)c(CCc3cccc(Cl)c3)[nH]c(=O)c2Br)c1	0.017 µM	0.008 µM	0.008 µM						
N#Cc1cc(Cl)cc(Oc2c(Cc3ccccc3)c[nH]c(=O)c2Br)c1	0.034 µM	0.071 µM	0.041 µM						
O=C1Nc2ccc(Cl)cc2[C@@](C#CC2CC2)(C(F)(F)F)O1 [EFAVIRENZ]						0.003 µM		0.065 µM	
N#Cc1cc(Cl)cc(Oc2c(CCOc3cccnc3)c[nH]c(=O)c2Br)c1	0.011 µM	0.016 µM	0.008 µM						
